From ChEMBL document CHEMBL1144017, “Novel AMPA and kainate receptor antagonists containing the pyrazolo[1,5-c]quinazoline ring system: Synthesis and structure-activity relationships” (Bioorg Med Chem, 2008)

How the values were obtained:
Rattus norvegicus [1] = organism: Rattus norvegicus; test: Ratio of Ki for rat NMDA receptor to Ki for rat AMPA receptor
[2] = Displacement of [3H]AMPA from AMPA receptor in rat cortical membrane; format: cell membranes
[3] = Displacement of [3H]kainate from KA receptor in rat cortical membrane; format: cell membranes
Glutamate NMDA receptor = test: Displacement of [3H]glycine from NMDA receptor in rat cortical membrane; format: cell membranes
Rattus norvegicus [4] = organism: Rattus norvegicus; test: Displacement of [3H]kainate from KA receptor in rat cortical membrane at 100 uM; format: cell membranes
Rattus norvegicus [5] = organism: Rattus norvegicus; test: Displacement of [3H]AMPA from AMPA receptor in rat cortical membrane at 100 uM; format: cell membranes
[6] = biological target: Glutamate NMDA receptor (Rattus norvegicus) (UniProt P35439+Q00959+Q00960+Q00961+Q62645+Q8VHN2+Q9R1M7); test: Displacement of [3H]glycine from NMDA receptor in rat cortical membrane at 100 uM; format: cell membranes
[7] = biological target: Glutamate NMDA receptor (Mus musculus); test: Antagonist activity at NMDA receptor assessed as inhibition of NMDA-induced depolarization in mouse cortical wedge preparation by electrophysiology assay
[8] = biological target: AMPA receptor (Mus musculus); test: Antagonist activity at AMPA receptor assessed as inhibition of AMPA-induced depolarization in mouse cortical wedge preparation by electrophysiology assay

Compound | Ratio Ki (Rattus norvegicus [1]) | Ki [2] | IC50 [3] | Ki (Glutamate NMDA receptor) | Activity (Rattus norvegicus [4]) | Activity (Rattus norvegicus [5]) | Activity [6] | IC50 [7] | IC50 [8]
CCNC(=O)Nc1cc2c(cc1Cl)[nH]c(=O)n1nc(C(=O)O)c(C(=O)O)c21 | 73.3 | 0.56 µM | 9.8 µM | 41 µM |  |  |  |  | 
CCOC(=O)c1ccc(NC(=O)Nc2cc3c(cc2Cl)[nH]c(=O)n2nc(C(=O)OCC)c(C(=O)OCC)c32)cc1 |  |  |  |  | 15% | 5% | 5% |  | 
O=C(O)c1nn2c(=O)[nH]c3cc(Cl)c([N+](=O)[O-])cc3c2c1C(=O)O | 2 | 0.59 µM | 11.7 µM | 1.25 µM |  |  |  |  | 
O=C(O)CNC(=O)Nc1cc2c(cc1Cl)[nH]c(=O)n1nc(C(=O)O)c(C(=O)O)c21 | 112 | 0.48 µM | 4.4 µM | 54 µM |  |  |  |  | 
O=C(Nc1cccc(C(=O)O)c1)Nc1cc2c(cc1Cl)[nH]c(=O)n1nc(C(=O)O)c(C(=O)O)c21 | 83 | 0.42 µM | 3 µM | 35 µM |  |  |  |  | 
CCOC(=O)c1nn2c(=O)[nH]c3cc(Cl)c(NC(=O)NC(Cc4ccccc4)C(=O)OC)cc3c2c1C(=O)OCC (racemic) |  |  |  |  | 16% | 46% | 16% |  | 
O=C(NCCc1ccccc1)Nc1cc2c(cc1Cl)[nH]c(=O)n1nc(C(=O)O)c(C(=O)O)c21 |  | 0.48 µM | 17 µM | 31 µM |  |  |  |  | 
O=C(Nc1cc2c(cc1Cl)[nH]c(=O)n1nc(C(=O)O)c(C(=O)O)c21)NC(Cc1ccccc1)C(=O)O (racemic) | 129 | 0.47 µM | 40 µM | 61 µM |  |  |  |  | 
O=C(O)c1nn2c(=O)[nH]c3cc(Cl)c(-n4cccc4)cc3c2c1C(=O)O | 154 | 0.13 µM | 4.5 µM | 20 µM |  |  |  |  | 
O=C(NCc1ccccc1)Nc1cc2c(cc1Cl)[nH]c(=O)n1nc(C(=O)O)c(C(=O)O)c21 | 44 | 0.37 µM | 11 µM | 16.3 µM |  |  |  |  | 
O=C(O)c1ccccc1C(=O)Nc1cc2c(cc1Cl)[nH]c(=O)n1nc(C(=O)O)c(C(=O)O)c21 | 20.7 | 1.3 µM | 0.52 µM | 27 µM |  |  |  |  | 
O=C(O)c1nn2c(=O)[nH]c3cc(Cl)c([N+](=O)[O-])cc3c2c1[N+](=O)[O-] | 1.7 | 11.9 µM |  | 20.5 µM | 29% |  |  |  | 
O=C(O)CCNC(=O)Nc1cc2c(cc1Cl)[nH]c(=O)n1nc(C(=O)O)c(C(=O)O)c21 | 425 | 0.16 µM | 4.6 µM | 68 µM |  |  |  |  | 
O=C(Nc1ccccc1)Nc1cc2c(cc1Cl)[nH]c(=O)n1nc(C(=O)O)c(C(=O)O)c21 | 83.5 | 0.14 µM | 11 µM | 11.7 µM |  |  |  |  | 
CCOC(=O)c1nn2c(=O)[nH]c3cc(Cl)c([N+](=O)[O-])cc3c2c1Cl | > 1.5 | 63 µM |  |  | 25% |  | 45% |  | 
CCOC(=O)c1nn2c(=O)[nH]c3cc(Cl)c([N+](=O)[O-])cc3c2c1[N+](=O)[O-] | 0.4 |  |  | 36.2 µM | 16% | 45% |  |  | 
CCOC(=O)c1cccc(NC(=O)Nc2cc3c(cc2Cl)[nH]c(=O)n2nc(C(=O)OCC)c(C(=O)OCC)c32)c1 |  |  |  |  | 0% | 18% | 0% |  | 
O=C(Nc1ccc(C(=O)O)cc1)Nc1cc2c(cc1Cl)[nH]c(=O)n1nc(C(=O)O)c(C(=O)O)c21 | 44 | 1.1 µM | 13 µM | 49 µM |  |  |  |  | 
O=C(O)c1nn2c(=O)[nH]c3cc(Cl)c([N+](=O)[O-])cc3c2c1Cl | 1.9 | 1.3 µM | 94 µM | 2.5 µM |  |  |  |  | 

Second part, the compound after the results:

Ratio Ki (Rattus norvegicus [1]) | Ki [2] | IC50 [3] | Ki (Glutamate NMDA receptor) | Activity (Rattus norvegicus [4]) | Activity (Rattus norvegicus [5]) | Activity [6] | IC50 [7] | IC50 [8] | Compound
28 | 3.5 µM |  | 99 µM | 24% |  |  |  |  | CCOC(=O)CCCNC(=O)Nc1cc2c(cc1Cl)[nH]c(=O)n1nc(C(=O)OCC)c(C(=O)OCC)c21
12.8 | 2.8 µM | 0.11 µM | 36 µM |  |  |  |  |  | CCOC(=O)c1nn2c(=O)[nH]c3cc(Cl)c(NC(=O)c4ccccc4C(=O)O)cc3c2c1C(=O)OCC
> 2 | 48 µM |  |  | 12% |  | 13% |  |  | CCOC(=O)c1nn2c(=O)[nH]c3cc(Cl)c(-n4cccc4)cc3c2c1C(=O)OCC
5 | 0.94 µM | 60 µM | 4.7 µM |  |  |  |  |  | CCOC(=O)c1c(C(=O)O)nn2c(=O)[nH]c3cc(Cl)c([N+](=O)[O-])cc3c12
 | 0.14 µM |  |  |  |  |  |  |  | O=C(O)c1cc2c3cc(-n4cnnc4)c(Cl)cc3[nH]c(=O)n2n1
 |  |  |  | 0% | 40% | 30% |  |  | CCOC(=O)c1nn2c(=O)[nH]c3cc(Cl)c([N+](=O)[O-])cc3c2c1C(=O)OCC
> 3.7 | 27 µM |  |  | 13% |  | 44% |  |  | CCNC(=O)Nc1cc2c(cc1Cl)[nH]c(=O)n1nc(C(=O)OCC)c(C(=O)OCC)c21
> 26 | 3.8 µM |  |  | 32% |  | 32% |  |  | CCOC(=O)CCNC(=O)Nc1cc2c(cc1Cl)[nH]c(=O)n1nc(C(=O)OCC)c(C(=O)OCC)c21
> 1000 | 0.1 µM | 2.4 µM |  |  |  | 43% | > 10 µM | 2.5 µM | O=C(O)c1nn2c(=O)[nH]c3cc(Cl)c(-n4cnnc4)cc3c2c1C(=O)O
> 11 | 8.9 µM |  |  | 19% |  | 43% |  |  | CCOC(=O)CNC(=O)Nc1cc2c(cc1Cl)[nH]c(=O)n1nc(C(=O)OCC)c(C(=O)OCC)c21
0.49 |  |  | 49 µM | 9% | 44% |  |  |  | CCOC(=O)c1nn2c(=O)[nH]c3cc(Cl)c(NC(=O)NCCc4ccccc4)cc3c2c1C(=O)OCC
 |  |  |  | 0% | 20% | 11% |  |  | CCOC(=O)c1nn2c(=O)[nH]c3cc(Cl)c(NC(=O)Nc4ccccc4)cc3c2c1C(=O)OCC
> 6 | 15.7 µM |  |  | 17% |  | 20% |  |  | CCOC(=O)c1nn2c(=O)[nH]c3cc(Cl)c(-n4ccc(C=O)c4)cc3c2c1C(=O)OCC
> 80 | 1.2 µM | 82 µM |  |  |  | 18% | > 20 µM | 5.8 µM | CCOC(=O)c1nn2c(=O)[nH]c3cc(Cl)c(-n4cnnc4)cc3c2c1C(=O)OCC
 |  |  |  | 0% | 44% | 19% |  |  | CCOC(=O)c1nn2c(=O)[nH]c3cc(Cl)c(NC(=O)NCc4ccccc4)cc3c2c1C(=O)OCC
